Consider one compound from patent US10022373B2, “Posaconazole pharmaceutical compositions and preparation methods, uses and pharmaceutical formulations thereof” (SINOTHERAPEUTICS INC., priority 2014, dated 2018).

The nature of data set [1]: Dissolution rate, USP II paddle method, simulated in vivo condition. Type of data set: physicochemical. As to conditions: medium conversion pH 1.2→6.8. The protocol:
Analytical method for dissolution samples: the same as the HPLC method in the above assay of apparent solubility.
It was reported that the pH value in human stomach was about 1.2, and that in human intestine was about 6.8. The dissolution of each of the pharmaceutical compositions of the present invention was determined under a stimulated in vivo condition, and the results are shown in Table 1-3.

Data set [2] is described as follows: Apparent solubility in phosphate buffer solution pH 6.8. Type of data set: physicochemical. The protocol: Weighting an excess amount of posaconazole pharmaceutical composition into a container, adding phosphate buffer solution (pH 6.8, about ⅔ of the volume of the container), and then placing the container in a shaking table at 37° C., and shaking for 3 h. Filtering the content with a 0.45 μm filter membrane, collecting the filtrate, diluting it with an appropriate amount of methanol, vortex mixing, and then determining the concentration of posaconazole via the following HPLC method: […]

The conditions of data set [3]: cited from earlier work.

For orientation: solubility means the concentration that dissolves in the medium under given conditions. As usually defined, the Solubility is the concentration that dissolves in the medium under given conditions.

Structures are written as SMILES. Read-outs that look alike come from different tables or passages of the source.

On to `CC[C@@H]([C@H](C)O)n1ncn(-c2ccc(N3CCN(c4ccc(OC[C@@H]5CO[C@@](Cn6cncn6)(c6ccc(F)cc6F)C5)cc4)CC3)cc2)c1=O` [API, 4-[4-[4-[4-[[(3R,5R)-5-(2,4-difluorophenyl)-5-(1,2,4-triazole-1-ylmethyl)oxolan-3-yl]methoxy]phenyl]piperazin-1-yl]phenyl]-2-[(2S,3S)-2-hydroxypentan-3-yl]-1,2,4-triazol-3-one], for which the Dissolution in data set [1] (pH 1.2, 5 min) is recorded as 89.0%; in data set [1] (pH 1.2, 10 min), 87.0%; in data set [1] (pH 1.2, 30 min), 98.7%; in data set [1] (pH 6.8, 60 min) it was 7.1%; in data set [1] (pH 6.8, 120 min), 5.6%; in data set [1] (pH 6.8, 180 min) it was 5.6%. Besides, the solubility at 3 h in data set [2] (aqueous buffer, thermodynamic from solid, phosphate buffer solution pH 6.8, 37° C., shaking 3 h) was less than 1 µg/mL. In addition, the “Apparent solubility ratio (composition/API)” value in data set [2] (phosphate buffer solution pH 6.8) is recorded as 1. Moreover, the Solubility entry in data set [3] (free base form, environment of the stomach pH=˜1.2) was “about 0.8 mg/ml”; in data set [3] (pH higher than 4) it was less than 1 µg/mL.
